# Measured values from US20100184703A1, “USE OF PEPTIDE DERIVATIVES FOR TREATING PATHOLOGIES RESULTING FROM ISCHEMIA” (CHIESI FARMACEUTICI S.p.A., priority 2007, published 2010).
# System: ANF, BNP, fibronectin, β-MHC, TNFR1, TNFR2, TNFα, caspase-2 mRNA
# Test: Quantitative RT-PCR of heart failure, fibrosis, hypertrophy and TNFα signaling markers after ischemia/reperfusion
# Format: in vivo, rat
# Conditions: IR model
# Protocol: In a second series of experiments, quantitative RT-PCR was performed to evaluate the level of expression of 2 markers of heart failure, Atrial Natriuretic Factor (ANF) and Brain Natriuretic Factor (BNP) as well as a marker of myocardial fibrosis, fibronectine, and myocardial hypertrophy, βMHC. […] B. mRNA expression levels of fibronectin a marker of fibrosis development, and β-Myosin Heavy Chain (β-MHC) a marker for hypertrophy development
# [1] = increase in vehicle-injected animals
substance,measurement,setting,value
Etanercept,mRNA expression level of TNFα,[1],not by Etanercept
same,mRNA expression level of TNFα receptor 2 (TNFR2),[1],not by Etanercept
same,mRNA expression level of caspase-2,[1],not by Etanercept
same,mRNA expression level of fibronectin,marker of fibrosis development,could only prevent fibrosis development
same,mRNA expression level of Atrial Natriuretic Factor (ANF),marker of heart failure,significant increase
same,mRNA expression level of brain natriuretic peptide (BNP),marker of heart failure,significant increase
